From patent US9278990B2, “Substituted nucleotide analogs” (priority 2010, dated 2016)

The compounds below were run on Huh-7 cells containing the self-replicating, subgenomic HCV replicon (assay: HCV replicon assay (luciferase reporter)). Details: Hepatitis C virus, Huh-7, 72 h.
Type: cell-based
Method: Huh-7 cells containing the self-replicating, subgenomic HCV replicon with a stable luciferase (LUC) reporter were cultured in Dulbecco's modified Eagle's medium (DMEM) containing 2 mM L-glutamine and supplemented with 10% heat-inactivated fetal bovine serum (FBS), 1% penicillin-streptomyocin, 1% nonessential amino acids, and 0.5 mg/mL G418.
On the first day, 5,000 HCV replicon cells were plated per well in a 96-well plate. On the following day, test compounds were solubilized in 100% DMSO to 100× the desired final testing concentration. Each compound was then serially diluted (1:3) up to 9 different concentrations. Compounds in 100% DMSO are reduced to 10% DMSO by diluting 1:10 in cell culture media. The compounds were diluted to 10% DMSO with cell culture media, which were used to dose the HCV replicon cells in 96-well format. The final DMSO concentration was 1%. The HCV replicon cells were incubated at 37° C. for 72 hours. At 72 hours, cells were processed when the cells are still subconfluent. Compounds that reduce the LUC signal are determined by Bright-Glo Luciferase Assay (Promega, Madison, Wis.). Percent Inhibition was determined for each compound concentration in relation to the control cells (untreated HCV replicon) to calculate the EC50.

SMILES | EC50 [nM]
COc1nc(N)nc2c1ncn2[C@@H]1O[C@H](COP(=S)(N[C@@H](C)C(=O)OC2CCCCC2)Oc2cccc3ccccc23)[C@@H](O)[C@@]1(C)O (stereo partly drawn) | < 1000
CC(C)OC(=O)[C@H](C)NP(=S)(OC[C@H]1O[C@@H](n2cnc3c(NC4CC4)nc(N)nc32)[C@](C)(O)[C@@H]1O)Oc1ccccc1 (stereo partly drawn) | < 1000
C[C@H](NP(=S)(OC[C@@]1(N=[N+]=[N-])O[C@@H](n2ccc(=O)[nH]c2=O)[C@H](O)[C@@H]1O)Oc1ccccc1)C(=O)OCC(C)(C)C (stereo partly drawn) | 10000 to 100000
[2H]C([2H])(OP(=S)(N[C@@H](C)C(=O)OC(C)C)Oc1ccccc1)[C@H]1O[C@@H](n2ccc(=O)[nH]c2=O)[C@](C)(O)[C@@H]1O (stereo partly drawn) | < 1000
C[C@H](NP(=S)(OC[C@H]1O[C@@H](n2cnc3c(=O)[nH]c(N)nc32)[C@](C)(F)[C@@H]1O)Oc1ccccc1)C(=O)OCC(C)(C)C (stereo partly drawn) | < 1000
CC(C)C[C@H](NP(=S)(OC[C@H]1O[C@@H](n2ccc(=O)[nH]c2=O)[C@](C)(O)[C@@H]1O)Oc1ccccc1)C(=O)OC(C)C (stereo partly drawn) | 1000 to 10000
CC(C)OC(=O)[C@H](C)NP(=S)(OC[C@H]1O[C@@H](n2ccc(=O)[nH]c2=O)[C@](C)(O)[C@@H]1O)Oc1ccc(F)cc1 (stereo partly drawn) | < 1000
COc1ccc(OP(=S)(N[C@@H](C)C(=O)OC(C)C)OC[C@H]2O[C@@H](n3ccc(=O)[nH]c3=O)[C@](C)(O)[C@@H]2O)cc1 (stereo partly drawn) | < 1000
C[C@H](NP(=S)(OC[C@H]1O[C@@H](n2ccc(=O)[nH]c2=O)[C@](C)(O)[C@@H]1O)Oc1cccc2ccccc12)C(=O)OC1CCCCC1 (stereo partly drawn) | < 1000
CSCC[C@H](NP(=S)(OC[C@H]1O[C@@H](n2ccc(=O)[nH]c2=O)[C@](C)(O)[C@@H]1O)Oc1ccccc1)C(=O)OC(C)C (stereo partly drawn) | 1000 to 10000
CC(C)OC(=O)[C@H](C)NP(=S)(OC[C@H]1O[C@@H](n2ccc(=O)[nH]c2=O)[C@](C)(O)[C@@H]1O)Oc1cccc2ccccc12 (stereo partly drawn) | < 1000
COc1nc(N)nc2c1ncn2[C@@H]1O[C@H](COP(=S)(N[C@@H](C)C(=O)OCC(C)(C)C)Oc2ccccc2)[C@@H](O)[C@@]1(C)O (stereo partly drawn) | < 1000
COc1nc(N)nc2c1ncn2[C@@H]1O[C@H](COP(=S)(N[C@@H](C)C(=O)OCC(C)(C)C)Oc2cccc3ccccc23)[C@@H](O)[C@@]1(C)O (stereo partly drawn) | < 1000
C[C@H](NP(=S)(OC[C@H]1O[C@@H](n2ccc(=O)[nH]c2=O)[C@](C)(O)[C@@H]1O)Oc1ccccc1)C(=O)OC1CCCCC1 (stereo partly drawn) | < 1000
CC(C)OC(=O)C(C)NP(=S)(OC[C@@]1(N=[N+]=[N-])O[C@@H](n2ccc(=O)[nH]c2=O)[C@H](O)[C@@H]1O)Oc1ccccc1 (stereo partly drawn) | 10000 to 100000
CC(C)OC(=O)[C@H](C)NP(=S)(OC[C@H]1O[C@@H](n2ccc(=O)[nH]c2=O)[C@](C)(O)[C@@H]1O)Oc1cccnc1 (stereo partly drawn) | < 1000
CC(C)OC(=O)CNP(=S)(OC[C@H]1O[C@@H](n2ccc(=O)[nH]c2=O)[C@](C)(O)[C@@H]1O)Oc1ccccc1 (stereo partly drawn) | 1000 to 10000
C[C@H](NP(=S)(OC[C@H]1O[C@@H](n2cnc3c(=O)[nH]c(N)nc32)[C@](C)(O)[C@@H]1O)Oc1ccccc1)C(=O)OC1CCCCC1 (stereo partly drawn) | < 1000
CC(C)OC(=O)C(C)NP(=S)(OC[C@H]1O[C@@H](n2cnc3c(=O)[nH]c(N)nc32)C(C)(O)C1O)Oc1ccccc1 (stereo partly drawn) | < 1000
CC(C)OC(=O)[C@H](C)NP(=S)(OC[C@H]1O[C@@H](n2cnc3c(=O)[nH]c(N)nc32)[C@](C)(O)[C@@H]1O)Oc1ccccc1 (stereo partly drawn) | < 1000
CC(C)OC(=O)[C@H](C)NP(=S)(OC[C@H]1O[C@@H](n2ccc(=O)[nH]c2=O)[C@](C)(O)[C@@H]1O)Oc1ccc(F)c(Cl)c1 (stereo partly drawn) | < 1000
CC(C)OC(=O)[C@H](C)NP(=S)(OC[C@H]1O[C@@H](n2cnc3c(N)nc(N)nc32)[C@](C)(O)[C@@H]1O)Oc1ccccc1 (stereo partly drawn) | < 1000
CC(C)OC(=O)[C@H](C)NP(=S)(OC[C@H]1O[C@@H](n2ccc(=O)[nH]c2=O)[C@](C)(O)[C@@H]1OC(=O)C(C)C)Oc1ccccc1 (stereo partly drawn) | < 1000

SMILES | EC50 [nM]
CC(C)OC(=O)[C@H](Cc1ccccc1)NP(=S)(OC[C@H]1O[C@@H](n2ccc(=O)[nH]c2=O)[C@](C)(O)[C@@H]1O)Oc1ccccc1 (stereo partly drawn) | 1000 to 10000
CC(C)OC(=O)[C@H](C)NP(=S)(OC[C@H]1O[C@@H](n2ccc(=O)[nH]c2=O)[C@](C)(O)[C@@H]1O)Oc1ccccc1Cl (stereo partly drawn) | < 1000
CC(C)OC(=O)[C@H](C)NP(=S)(OC[C@@]1(N=[N+]=[N-])O[C@@H](n2ccc(=O)[nH]c2=O)[C@H](O)[C@@H]1O)Oc1ccccc1 (stereo partly drawn) | 10000 to 100000
COc1nc(N)nc2c1ncn2[C@@H]1O[C@H](COP(=S)(NC(C)C(=O)OC(C)C)Oc2ccccc2)C(O)C1(C)F (stereo partly drawn) | < 1000
CC(C)OC(=O)[C@H](C)NP(=S)(OC[C@H]1O[C@@H](n2cnc3c(Cl)nc(N)nc32)[C@](C)(O)[C@@H]1O)Oc1ccccc1 (stereo partly drawn) | < 1000
CC[C@H](NP(=S)(OC[C@H]1O[C@@H](n2ccc(=O)[nH]c2=O)[C@](C)(O)[C@@H]1O)Oc1ccccc1)C(=O)OC(C)C (stereo partly drawn) | < 1000
COc1nc(N)nc2c1ncn2[C@@H]1O[C@H](COP(=S)(NC(C)C(=O)OC(C)C)Oc2ccccc2)C(O)C1(C)O (stereo partly drawn) | < 1000
Cc1ccc(OP(=S)(N[C@@H](C)C(=O)OC(C)C)OC[C@H]2O[C@@H](n3ccc(=O)[nH]c3=O)[C@](C)(O)[C@@H]2O)cc1 (stereo partly drawn) | < 1000
COc1nc(N)nc2c1ncn2[C@@H]1O[C@H](COP(=S)(N[C@@H](C)C(=O)OC(C)C)Oc2ccccc2)[C@@H](O)[C@@]1(C)O (stereo partly drawn) | < 1000
C[C@H](NP(=S)(OC[C@H]1O[C@@H](n2ccc(=O)[nH]c2=O)[C@](C)(F)[C@@H]1O)Oc1ccccc1)C(=O)OC1CCCCC1 (stereo partly drawn) | < 1000
CC(C)OC(=O)[C@H](C)NP(=S)(OC[C@H]1O[C@@H](n2ccc(=O)[nH]c2=O)[C@](C)(O)[C@@H]1O)Oc1cccc2ncccc12 (stereo partly drawn) | < 1000
CC(C)OC(=O)[C@H](C)NP(=S)(OC[C@H]1O[C@@H](n2cnc3c(N)ncnc32)[C@](C)(O)[C@@H]1O)Oc1cccc2ccccc12 (stereo partly drawn) | < 1000
C[C@H](NP(=S)(OC[C@H]1O[C@@H](n2ccc(=O)[nH]c2=O)[C@](C)(O)[C@@H]1O)Oc1cccc2ccccc12)C(=O)OCC(C)(C)C (stereo partly drawn) | < 1000
CC(C)OC(=O)[C@H](C)NP(=S)(OC[C@H]1O[C@@H](n2ccc(=O)[nH]c2=O)[C@](C)(O)[C@@H]1O)Oc1ccccc1 (stereo partly drawn) | < 1000
COc1nc(N)nc2c1ncn2[C@@H]1O[C@H](COP(=S)(N[C@@H](C)C(=O)OC2CCCCC2)Oc2ccccc2)[C@@H](O)[C@@]1(C)O (stereo partly drawn) | < 1000
COC(=O)[C@H](C)NP(=S)(OC[C@H]1O[C@@H](n2ccc(=O)[nH]c2=O)[C@](C)(O)[C@@H]1O)Oc1cccc2ccccc12 (stereo partly drawn) | < 1000
CCC(=O)O[C@@H]1[C@@H](COP(=S)(N[C@@H](C)C(=O)OC(C)C)Oc2ccccc2)O[C@@H](n2ccc(=O)[nH]c2=O)[C@]1(C)O (stereo partly drawn) | < 1000
[2H]C([2H])(OP(=S)(N[C@@H](C)C(=O)OC(C)C)Oc1ccccc1)[C@H]1O[C@@H](n2ccc(=O)[nH]c2=O)[C@](C)(O)[C@@H]1OC(C)=O (stereo partly drawn) | < 1000
Cc1ccccc1OP(=S)(N[C@@H](C)C(=O)OC(C)C)OC[C@H]1O[C@@H](n2ccc(=O)[nH]c2=O)[C@](C)(O)[C@@H]1O (stereo partly drawn) | < 1000
CCC(=O)O[C@@H]1[C@@H](COP(=S)(N[C@@H](C)C(=O)OC(C)C)Oc2ccccc2)O[C@@H](n2ccc(=O)[nH]c2=O)[C@]1(C)OC(=O)CC (stereo partly drawn) | < 1000
CC(C)OC(=O)[C@H](C)N[P@@](=S)(OC[C@H]1O[C@@H](n2ccc(=O)[nH]c2=O)[C@](C)(O)[C@@H]1O)Oc1ccccc1 | < 1000
C[C@H](NP(=S)(OC[C@H]1O[C@@H](n2ccc(=O)[nH]c2=O)[C@](C)(O)[C@@H]1O)Oc1ccccc1)C(=O)OCC(C)(C)C (stereo partly drawn) | < 1000
